Values belong to the compound of their own block, whether it stands above or below them. The source made the active and inactive calls.
What was measured:
[1] = molecular target: T1, Estrogen receptor (Homo sapiens, UniProt P03372); experiment: ERα–SRC-3 coactivator interaction inhibitors, confirmation, orthogonal assay, biochemical, ELISA, streptavidin-HRP readout (AID 1079)
T1 sequence (P03372 whole entry): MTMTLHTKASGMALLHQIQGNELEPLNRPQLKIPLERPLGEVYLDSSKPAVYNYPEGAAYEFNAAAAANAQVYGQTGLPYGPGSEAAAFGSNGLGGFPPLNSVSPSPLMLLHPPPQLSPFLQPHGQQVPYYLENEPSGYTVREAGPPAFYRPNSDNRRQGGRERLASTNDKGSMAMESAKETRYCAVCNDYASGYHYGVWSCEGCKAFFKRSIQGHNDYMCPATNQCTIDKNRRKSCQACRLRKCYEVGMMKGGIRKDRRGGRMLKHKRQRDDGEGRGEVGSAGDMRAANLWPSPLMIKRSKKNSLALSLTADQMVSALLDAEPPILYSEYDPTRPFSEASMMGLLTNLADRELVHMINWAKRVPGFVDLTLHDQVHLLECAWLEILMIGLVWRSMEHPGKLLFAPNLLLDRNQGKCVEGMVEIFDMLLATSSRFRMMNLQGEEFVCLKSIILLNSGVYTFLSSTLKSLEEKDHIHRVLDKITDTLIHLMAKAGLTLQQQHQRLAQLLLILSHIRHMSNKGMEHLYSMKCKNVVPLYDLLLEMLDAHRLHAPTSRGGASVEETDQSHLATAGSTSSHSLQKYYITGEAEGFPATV

[2] = molecular target: T2, Eukaryotic translation initiation factor 2-alpha kinase 3 (Homo sapiens, UniProt Q9NZJ5); experiment: Dose response cell-based high-throughput screening assay to measure PERK inhibition. [Related pubchem assays: 1416 ]; type: functional
[3] = molecular target: T2, Eukaryotic translation initiation factor 2-alpha kinase 3; experiment: Counterscreen assay for PERK inhibitors: Dose response cell-based high throughput screening assay to measure inhibition of PERK at 6 hours. [Related pubchem assays: 1522, 1416 ]; type: functional
[4] = molecular target: T3, Mucolipin-3 (Homo sapiens, UniProt Q8TDD5); experiment: TRPML3 and TRPML2 channel agonists, cell-based, patch clamp, Fura-2 profiling panel, panel member TRPML3 Dose Response (AID 2116)
T3 sequence (Q8TDD5 whole entry): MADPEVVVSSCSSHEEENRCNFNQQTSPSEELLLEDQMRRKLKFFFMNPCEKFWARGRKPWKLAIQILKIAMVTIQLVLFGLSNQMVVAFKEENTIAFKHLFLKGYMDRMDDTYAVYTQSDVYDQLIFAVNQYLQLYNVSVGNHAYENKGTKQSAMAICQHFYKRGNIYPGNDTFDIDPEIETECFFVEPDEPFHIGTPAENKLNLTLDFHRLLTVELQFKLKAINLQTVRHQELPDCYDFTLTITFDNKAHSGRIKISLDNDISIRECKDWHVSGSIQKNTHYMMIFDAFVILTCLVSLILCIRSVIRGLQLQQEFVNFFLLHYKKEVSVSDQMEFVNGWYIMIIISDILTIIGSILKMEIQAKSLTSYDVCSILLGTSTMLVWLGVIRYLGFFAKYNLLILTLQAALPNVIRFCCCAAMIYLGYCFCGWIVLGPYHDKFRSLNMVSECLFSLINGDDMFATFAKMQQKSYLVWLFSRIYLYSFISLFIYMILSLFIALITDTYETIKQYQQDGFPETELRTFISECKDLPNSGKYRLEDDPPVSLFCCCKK

[5] = molecular target: T4, Ion channel NompC (Danio rerio, UniProt Q7T1G6); experiment: Fluorescence counterscreen assay for TRPML3 agonists: dose response cell-based high-throughput screening assay to identify agonists of the transient receptor potential channel N1 (TRPN1). [Related pubchem assays: 1526, 1424, 1448 ]; type: functional
[6] = molecular target: T3, Mucolipin-3; experiment: Dose response cell-based high-throughput screening assay for agonists of the transient receptor potential channel ML3 (TRPML3). [Related pubchem assays: 1526, 1424, 1448 ]; type: functional
[7] = molecular target: T4, Ion channel NompC; experiment: TRPML3 and TRPML2 channel agonists, cell-based, patch clamp, Fura-2 profiling panel, panel member TRPN1 Dose Response (AID 2116)
[8] = molecular target: Cytochrome P450 2C9 (Homo sapiens, UniProt P11712); conditions: Potency
[9] = molecular target: Cytochrome P450 3A4 (Homo sapiens, UniProt P08684); conditions: Potency;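 also: confirmatory qHTS run detecting inhibitors and substrates of CYP3A4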
[10] = molecular target: T5, Alkaline phosphatase, tissue-nonspecific isozyme (Homo sapiens, UniProt P05186)
T5 sequence (P05186 whole entry): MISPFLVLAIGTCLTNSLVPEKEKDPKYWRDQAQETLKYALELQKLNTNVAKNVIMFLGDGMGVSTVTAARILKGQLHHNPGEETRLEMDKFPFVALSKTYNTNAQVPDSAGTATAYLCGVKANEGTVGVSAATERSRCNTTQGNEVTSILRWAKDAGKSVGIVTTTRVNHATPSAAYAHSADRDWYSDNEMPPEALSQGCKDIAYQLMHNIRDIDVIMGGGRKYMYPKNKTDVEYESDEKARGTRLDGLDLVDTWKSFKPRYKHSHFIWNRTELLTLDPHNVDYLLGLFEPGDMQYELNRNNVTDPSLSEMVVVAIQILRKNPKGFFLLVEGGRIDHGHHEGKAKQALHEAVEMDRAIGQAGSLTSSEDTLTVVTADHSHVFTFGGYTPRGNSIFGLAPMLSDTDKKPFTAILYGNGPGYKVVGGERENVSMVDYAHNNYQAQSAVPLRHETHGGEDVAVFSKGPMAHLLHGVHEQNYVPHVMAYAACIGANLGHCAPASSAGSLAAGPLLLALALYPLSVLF

[11] = molecular target: Acyl-homoserine lactone acylase PvdQ (Pseudomonas aeruginosa (strain LESB58), UniProt Q9I194); experiment: P. aeruginosa PvdQ acylase inhibitors, dose response, biochemical, fluorescence, plate reader and imaging, cherry-picks (AID 493231)
[12] = molecular target: Estrogen receptor beta (Homo sapiens, UniProt Q92731); experiment: ERβ–SRC-3 coactivator interaction inhibitors, confirmation, orthogonal assay, biochemical, ELISA, streptavidin-HRP readout (AID 1060)
[13] = molecular target: T6, Heat shock 70 kDa protein 1A (Homo sapiens, UniProt P0DMV8); experiment: Hsp70 inhibitors, biochemical, TR-FRET (AID 786)
[14] = molecular target: T7, Bcl-2-related protein A1 (Mus musculus, UniProt Q07440); experiment: Bfl-1 inhibitors, primary screen, biochemical, fluorescence polarization, FITC-Bid, mouse (AID 432)
T7 sequence (Q07440 whole entry): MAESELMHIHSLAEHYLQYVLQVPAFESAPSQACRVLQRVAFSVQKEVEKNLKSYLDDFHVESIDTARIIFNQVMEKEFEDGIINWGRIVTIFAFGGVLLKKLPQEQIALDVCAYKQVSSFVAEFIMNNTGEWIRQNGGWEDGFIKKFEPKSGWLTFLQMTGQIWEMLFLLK

[15] = molecular target: Mothers against decapentaplegic homolog 3 (Homo sapiens, UniProt P84022); experiment: SMAD3 transcription factor inhibitors, dose response (AID 715); type: functional
[16] = molecular target: T7, Bcl-2-related protein A1; experiment: Bfl-1 inhibitors blocking BH3 peptide binding, confirmation, biochemical, TR-FRET, mouse Bfl-1 (AID 621);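 also: TR-FRET binding of GST-Bfl-1 to FITC-labelled Bid peptide via terbium antibody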
[17] = molecular target: T6, Heat shock 70 kDa protein 1A; experiment: Hsp70 inhibitors, probe displacement, primary screen, biochemical, fluorescence polarization (AID 583)
[18] = molecular target: T8, Bcl-2-like protein 10 (Homo sapiens, UniProt Q9HD36); experiment: displacers of TR3 peptide from Bcl-B, primary screen, selectivity assay for Bfl-1 inhibitor project, biochemical, fluorescence polarization, FITC-TR3 peptide (AID 748);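 also: fluorescence polarization from a fluorescein-labelled TR3 peptide binding purified Bcl-B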
T8 sequence (Q9HD36 whole entry): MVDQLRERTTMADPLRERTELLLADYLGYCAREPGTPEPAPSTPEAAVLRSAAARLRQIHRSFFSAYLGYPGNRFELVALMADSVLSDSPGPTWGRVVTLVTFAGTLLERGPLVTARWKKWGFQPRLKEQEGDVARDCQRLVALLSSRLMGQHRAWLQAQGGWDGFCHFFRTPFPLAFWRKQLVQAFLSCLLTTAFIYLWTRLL

[19] = molecular target: Neurotensin receptor type 1 (Homo sapiens, UniProt P30989); type: functional;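 also: Image-based confirmatory dose-response assay measuring agonist activity at NTR1; NTR1-expressing U2OS osteosarcoma cells imaged for beta-arrestin GFP spot formation; agonist potency where compounds increase beta-arrestin recruitment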
Chain of Neurotensin receptor type 1 (P30989 whole entry): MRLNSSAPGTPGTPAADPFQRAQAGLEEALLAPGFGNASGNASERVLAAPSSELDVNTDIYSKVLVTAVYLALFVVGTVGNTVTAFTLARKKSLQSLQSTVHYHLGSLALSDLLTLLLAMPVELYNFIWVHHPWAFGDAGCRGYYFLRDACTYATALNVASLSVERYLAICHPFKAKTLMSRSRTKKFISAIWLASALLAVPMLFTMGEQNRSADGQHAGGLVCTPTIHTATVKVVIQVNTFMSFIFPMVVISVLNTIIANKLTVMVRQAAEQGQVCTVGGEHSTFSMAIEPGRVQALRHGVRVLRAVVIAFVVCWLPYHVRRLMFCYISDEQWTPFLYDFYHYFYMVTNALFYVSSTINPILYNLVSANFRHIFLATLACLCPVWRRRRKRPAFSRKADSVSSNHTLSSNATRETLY

T6 sequence (P0DMV8 whole entry): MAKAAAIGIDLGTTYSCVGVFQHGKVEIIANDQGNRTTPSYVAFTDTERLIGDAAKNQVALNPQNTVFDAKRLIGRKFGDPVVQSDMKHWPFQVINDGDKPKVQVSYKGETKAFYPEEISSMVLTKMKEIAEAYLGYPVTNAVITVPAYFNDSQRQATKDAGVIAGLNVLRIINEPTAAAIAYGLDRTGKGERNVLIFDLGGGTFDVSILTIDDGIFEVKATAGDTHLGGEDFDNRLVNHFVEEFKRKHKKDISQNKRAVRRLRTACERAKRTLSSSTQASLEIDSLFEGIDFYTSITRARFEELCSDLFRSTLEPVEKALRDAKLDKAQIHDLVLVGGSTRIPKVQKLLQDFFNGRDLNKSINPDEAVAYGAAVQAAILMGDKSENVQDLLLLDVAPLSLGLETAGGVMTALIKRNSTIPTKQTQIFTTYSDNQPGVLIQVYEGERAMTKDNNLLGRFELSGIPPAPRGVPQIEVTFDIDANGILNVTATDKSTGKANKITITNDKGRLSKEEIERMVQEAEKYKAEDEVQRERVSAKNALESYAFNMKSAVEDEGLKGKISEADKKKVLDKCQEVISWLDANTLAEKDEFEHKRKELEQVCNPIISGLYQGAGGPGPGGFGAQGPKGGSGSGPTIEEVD
T2 sequence (Q9NZJ5 whole entry): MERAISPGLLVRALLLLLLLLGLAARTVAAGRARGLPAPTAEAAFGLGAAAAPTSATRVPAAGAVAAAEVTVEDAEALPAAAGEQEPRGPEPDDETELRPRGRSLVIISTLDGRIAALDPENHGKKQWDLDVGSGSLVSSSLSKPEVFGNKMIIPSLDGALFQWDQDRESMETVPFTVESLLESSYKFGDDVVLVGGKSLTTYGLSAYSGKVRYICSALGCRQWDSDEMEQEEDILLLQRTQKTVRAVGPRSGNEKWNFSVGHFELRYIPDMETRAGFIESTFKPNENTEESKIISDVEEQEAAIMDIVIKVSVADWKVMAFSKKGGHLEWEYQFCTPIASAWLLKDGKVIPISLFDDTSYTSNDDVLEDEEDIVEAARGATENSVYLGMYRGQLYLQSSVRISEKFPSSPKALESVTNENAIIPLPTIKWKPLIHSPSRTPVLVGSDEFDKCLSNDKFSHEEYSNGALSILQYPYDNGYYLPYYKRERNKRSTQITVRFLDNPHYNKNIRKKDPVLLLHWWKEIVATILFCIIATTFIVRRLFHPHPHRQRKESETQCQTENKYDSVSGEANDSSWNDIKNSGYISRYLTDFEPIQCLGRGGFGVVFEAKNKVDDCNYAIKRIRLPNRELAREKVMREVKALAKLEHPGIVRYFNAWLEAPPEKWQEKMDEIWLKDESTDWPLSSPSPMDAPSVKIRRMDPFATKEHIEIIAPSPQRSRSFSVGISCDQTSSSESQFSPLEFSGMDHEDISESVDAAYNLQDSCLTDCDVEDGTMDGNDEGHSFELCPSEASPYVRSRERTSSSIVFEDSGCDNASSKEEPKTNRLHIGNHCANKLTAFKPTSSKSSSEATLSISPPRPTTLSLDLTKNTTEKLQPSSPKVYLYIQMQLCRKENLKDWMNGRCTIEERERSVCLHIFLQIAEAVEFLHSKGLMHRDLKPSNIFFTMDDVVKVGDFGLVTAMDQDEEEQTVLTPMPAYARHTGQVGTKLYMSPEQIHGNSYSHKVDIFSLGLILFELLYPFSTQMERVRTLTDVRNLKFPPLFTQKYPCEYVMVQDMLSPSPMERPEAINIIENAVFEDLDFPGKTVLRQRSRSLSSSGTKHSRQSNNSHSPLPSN
T4 sequence (Q7T1G6 whole entry): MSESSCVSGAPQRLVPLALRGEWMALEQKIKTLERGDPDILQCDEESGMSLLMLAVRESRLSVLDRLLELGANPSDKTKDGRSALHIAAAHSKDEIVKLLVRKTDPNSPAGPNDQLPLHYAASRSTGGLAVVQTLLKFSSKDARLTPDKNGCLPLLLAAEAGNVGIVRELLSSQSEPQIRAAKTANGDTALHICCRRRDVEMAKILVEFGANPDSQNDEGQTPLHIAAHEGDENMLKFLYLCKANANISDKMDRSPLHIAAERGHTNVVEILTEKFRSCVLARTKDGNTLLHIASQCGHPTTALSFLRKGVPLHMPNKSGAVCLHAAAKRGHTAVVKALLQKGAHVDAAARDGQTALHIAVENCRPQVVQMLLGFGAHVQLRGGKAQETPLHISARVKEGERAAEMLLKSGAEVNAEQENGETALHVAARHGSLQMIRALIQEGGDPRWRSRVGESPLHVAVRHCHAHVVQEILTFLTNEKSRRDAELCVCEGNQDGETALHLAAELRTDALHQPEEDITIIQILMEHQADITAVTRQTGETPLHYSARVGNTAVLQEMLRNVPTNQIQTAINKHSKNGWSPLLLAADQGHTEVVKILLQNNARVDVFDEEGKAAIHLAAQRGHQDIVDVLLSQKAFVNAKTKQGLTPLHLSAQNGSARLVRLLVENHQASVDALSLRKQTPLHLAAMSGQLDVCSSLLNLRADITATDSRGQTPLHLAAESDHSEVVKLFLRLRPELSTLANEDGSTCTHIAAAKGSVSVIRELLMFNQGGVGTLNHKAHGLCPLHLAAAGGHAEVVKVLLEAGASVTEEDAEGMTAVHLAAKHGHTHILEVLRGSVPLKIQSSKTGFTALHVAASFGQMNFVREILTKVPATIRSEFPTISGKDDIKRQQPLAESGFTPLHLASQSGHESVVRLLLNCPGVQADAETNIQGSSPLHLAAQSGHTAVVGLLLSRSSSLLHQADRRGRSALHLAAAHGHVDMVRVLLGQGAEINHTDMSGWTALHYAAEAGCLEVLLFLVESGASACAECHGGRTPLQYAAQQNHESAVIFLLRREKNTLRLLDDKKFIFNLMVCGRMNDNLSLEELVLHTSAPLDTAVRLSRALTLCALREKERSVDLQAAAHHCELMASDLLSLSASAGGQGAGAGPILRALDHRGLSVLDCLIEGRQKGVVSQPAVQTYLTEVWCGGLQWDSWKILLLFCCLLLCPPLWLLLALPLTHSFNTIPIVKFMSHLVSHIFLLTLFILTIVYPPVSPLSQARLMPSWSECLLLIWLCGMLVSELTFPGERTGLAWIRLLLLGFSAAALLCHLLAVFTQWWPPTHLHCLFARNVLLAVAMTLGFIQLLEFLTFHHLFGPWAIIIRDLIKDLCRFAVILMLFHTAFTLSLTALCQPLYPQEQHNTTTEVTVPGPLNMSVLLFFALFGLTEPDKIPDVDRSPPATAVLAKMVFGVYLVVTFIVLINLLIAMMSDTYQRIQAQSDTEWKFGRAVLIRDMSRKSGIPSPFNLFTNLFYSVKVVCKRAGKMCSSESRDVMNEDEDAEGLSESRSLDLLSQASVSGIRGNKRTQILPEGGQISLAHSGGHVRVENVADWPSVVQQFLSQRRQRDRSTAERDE
Chain of Estrogen receptor beta (Q92731 whole entry): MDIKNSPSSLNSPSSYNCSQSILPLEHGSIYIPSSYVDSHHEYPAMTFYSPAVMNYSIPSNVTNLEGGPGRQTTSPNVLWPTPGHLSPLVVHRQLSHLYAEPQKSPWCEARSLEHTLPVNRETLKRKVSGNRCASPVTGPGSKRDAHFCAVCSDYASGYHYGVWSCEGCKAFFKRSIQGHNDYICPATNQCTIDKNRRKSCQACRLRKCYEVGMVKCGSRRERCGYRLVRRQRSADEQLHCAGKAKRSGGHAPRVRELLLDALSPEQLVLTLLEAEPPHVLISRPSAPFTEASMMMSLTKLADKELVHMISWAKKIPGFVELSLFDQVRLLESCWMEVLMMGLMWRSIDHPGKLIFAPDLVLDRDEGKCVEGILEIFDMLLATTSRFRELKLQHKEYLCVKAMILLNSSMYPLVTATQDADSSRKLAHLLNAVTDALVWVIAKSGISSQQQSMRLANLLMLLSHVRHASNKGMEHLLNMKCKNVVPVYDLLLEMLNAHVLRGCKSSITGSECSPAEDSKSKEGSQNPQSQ
Chain of Acyl-homoserine lactone acylase PvdQ (Q9I194 24-193 limits assumed): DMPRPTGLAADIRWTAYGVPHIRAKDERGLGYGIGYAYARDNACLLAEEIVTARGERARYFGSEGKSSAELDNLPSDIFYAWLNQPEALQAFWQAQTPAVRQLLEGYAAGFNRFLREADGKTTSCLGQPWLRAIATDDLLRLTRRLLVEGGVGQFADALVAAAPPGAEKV
Chain of Acyl-homoserine lactone acylase PvdQ (Q9I194 217-762 limits assumed): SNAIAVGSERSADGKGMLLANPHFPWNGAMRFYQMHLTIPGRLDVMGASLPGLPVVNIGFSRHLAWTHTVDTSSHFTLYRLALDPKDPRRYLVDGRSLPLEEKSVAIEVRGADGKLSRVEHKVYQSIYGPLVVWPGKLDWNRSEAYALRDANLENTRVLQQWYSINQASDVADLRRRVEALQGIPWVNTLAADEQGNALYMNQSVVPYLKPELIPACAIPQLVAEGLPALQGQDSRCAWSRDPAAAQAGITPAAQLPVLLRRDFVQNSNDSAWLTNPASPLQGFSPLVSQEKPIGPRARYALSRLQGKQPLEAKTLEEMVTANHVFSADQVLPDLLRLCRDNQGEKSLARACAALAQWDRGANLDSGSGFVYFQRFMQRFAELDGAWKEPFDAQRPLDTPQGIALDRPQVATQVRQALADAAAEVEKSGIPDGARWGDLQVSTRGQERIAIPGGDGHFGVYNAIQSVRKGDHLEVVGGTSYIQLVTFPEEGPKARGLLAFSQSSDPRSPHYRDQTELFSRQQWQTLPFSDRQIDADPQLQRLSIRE

- EC50 [2]: > 55.7 µM (not active)
- EC50 [3]: > 55.7 µM (not active)
SMILES: CC(C)C(=O)Nc1ccc2c(c1)nc(CCN1CCN(C)CC1)n2C

- AC50 [8]: 25.1 µM (inconclusive)
- AC50 [9]: 25.1 µM (inconclusive)
SMILES: OC1c2ccccc2-c2nc3ccccc3cc21 (centres undefined)

- IC50 [12]: 44.6 µM (not active)
- IC50 [13]: 11.4 µM (active)
- IC50 [14]: > 100 µM (not active)
- IC50 [15]: 9.46 µM (active)
- IC50 [16]: > 100 µM (not active)
- IC50 [17]: 45.4 µM (active)
- IC50 [18]: 73.6 µM (inactive)
SMILES: COc1cccc(C(=O)NC2CC3CCCC(C2)N3CC(=O)Nc2ccccc2)c1 (centres undefined)

- EC50 [19]: 16.5 µM (active)
SMILES: CC(C)Cn1c(N)c(C(=O)CSc2cc(Cl)ccc2Cl)c(=O)n(C)c1=O

Second part, the compound before the results:

SMILES: O=C(CCCn1c(=S)[nH]c2ccccc2c1=O)N1CCN(c2ccccc2O)CC1
- IC50 [1]: 0.07 µM (not active)

SMILES: Cc1ccc(Cl)cc1N1CCN(S(=O)(=O)N2CCCCC2)CC1
- EC50 [4]: 3.46 µM (active)
- EC50 [5]: > 29.9 µM (not active)
- EC50 [6]: 1.84 µM (active)
- EC50 [7]: > 29.9 µM (inactive)

SMILES: Cc1ccc(N(C(=O)c2ccn[nH]2)C(C(=O)NC2CCCC2)c2cccs2)cc1 (centres undefined)
- EC50 [10]: > 100 µM (not active)

SMILES: CC(C)CCNC(=O)c1cccc(Cl)c1
- AC50 [11]: 6.33 µM (active)
